The values that follow come from patent publication US12054494B2, “Compound with anticancer activity” (KYOWA KIRIN CO., LTD., priority 2018, dated 2024).

In the test the test system is SU-DHL-4 cells. The experiment in a line: Inhibitory effect on cell viability (Cell Counting Kit-8). It counts as cell-based. The note with it: Homo sapiens, 72 hours culture with test compound, concentration showing 90% inhibition rate of cell viability. How it is done:
Inhibitiory Effect on Cell Viability
SU-DHL-4 cells (Code No. ACC 495, Deutsche Sammlung von Mikroorganismen and Zellkulturen GmbH) were cultured at 37° C. using a carbon dioxide incubator (95% air, 5% CO2) in RPMI1640 medium (Code No. 11875-093, Thermo Fisher Scientific) in which inactivated fetal bovine serum (FBS: Code No. 10099-148, Thermo Fisher Scientific) in an amount to give a final concentration of 10 vol % and penicillin/streptomycin solution (PS: Code No. 15140-122, Thermo Fisher Scientific) in an amount to give a final concentration of 1 vol % were added. The cells were passaged twice a week at a volume of 20-40 mL so as to maintain a cell concentration of 1×10^6 cells/mL or less.
The cultured SU-DHL-4 cells were seeded at 2000 cells/well in a transparent 384-well plate (Code No. 781182, Greiner bio-one). After seeding, the cells were precultured at 37° C. in a carbon dioxide gas incubator for 18 to 25 hours. Next, 1, 0.1 or 0.01 mmol/L DMSO solution of the test compound was prepared and a 9-step dilution series were prepared so that the concentration will be 200 times the final concentration in the RPMI1640 medium containing the above FBS and PS, and 1/200 volume of the dilution series were added to each well. At this time, the final concentration of DMSO was adjusted to be 0.1 vol %. After adding the test compound, the cells were cultured at 37° C. in a carbon dioxide gas incubator for 72 hours. Next, 0.020 mL of Cell Counting Kit-8 (Code No. CK04, DOJINDO) solution diluted 2-fold or 4-fold with phosphate buffered saline (PBS) was added to each well. Color reaction was carried out in a carbon dioxide gas incubator at 37° C. for 2 to 3 hours, and the absorbance at a wavelength of 450 nm was measured using SpectraMax 340PC (Molecular Devices). The inhibition rate of cell viability was calculated by the following formula, and the concentration of the test compound (IC90 value) showing a 90% inhibition rate of cell viability was calculated. Inhibition rate of cell viability (%)=100−(A−B)/(C−B)×100 • A: Absorbance of a well containing test compound • B: Absorbance of a well without addition of cells • C: Absorbance of a well without addition of test compound
A general note: Formazan colour is commonly taken as a measure of viable cells.
What is called IC90 is the concentration needed for an effect of 90%. Low readings indicate greater potency, high ones weaker potency. As for `CCC(=O)N1c2ccccc2[C@H](Nc2ccc(C(=O)NC3CCN(C(=O)c4ccc(N[C@@H]5C[C@H](C)N(C(=O)CC)c6ccccc65)cc4)CC3)cc2)C[C@@H]1C` (relative stereo) [Compound 1c, 4-{[(2S*,4R*)-2-Methyl-1-propionyl-1,2,3,4-tetrahydroquinolin-4-yl]amino}-N-[1-(4-{[(2S*,4R*)-2-methyl-1-propionyl-1,2,3,4-tetrahydroquinolin-4-yl]amino}benzoyl)piperidin-4-yl]benzamide], it took 7.85 nM to reach the 90% level (IC90).

`CCC(=O)N1c2ccccc2[C@H](Nc2ccc(C(=O)NC3CN(C(=O)c4ccc(N[C@@H]5C[C@H](C)N(C(=O)CC)c6ccccc65)cc4)C3)cc2)C[C@@H]1C` (relative stereo) [Compound 1g, 4-{[(2S*,4R*)-2-Methyl-1-propionyl-1,2,3,4-tetrahydroquinolin-4-yl]amino}-N-[1-(4-{[(2S*,4R*)-2-methyl-1-propionyl-1,2,3,4-tetrahydroquinolin-4-yl]amino}benzoyl)azetidin-3-yl]benzamide] yielded an IC90 of 10.6 nM. The IC90 values of the last two molecules are within 1.5-fold of each other. To `CCC(=O)N1c2ccccc2[C@H](Nc2ccc(NC(=O)CNC(=O)c3ccc(N[C@@H]4C[C@H](C)N(C(=O)CC)c5ccccc54)cc3)cc2)C[C@@H]1C` (relative stereo) [Compound 2a, 4-{[(2S*,4R*)-2-Methyl-1-propionyl-1,2,3,4-tetrahydroquinolin-4-yl]amino}-N-{2-[(4-{[(2S*,4R*)-2-methyl-1-propionyl-1,2,3,4-tetrahydroquinolin-4-yl]amino}phenyl)amino]-2-oxoethyl}benzamide] belongs 2.12 nM; to `CCC(=O)N1c2ccccc2[C@H](Nc2ccc(NC(=O)[C@@H](C)NC(=O)c3ccc(N[C@@H]4C[C@H](C)N(C(=O)CC)c5ccccc54)cc3)cc2)C[C@@H]1C` (relative stereo) [Compound 2c, 4-{[(2S,4R)-2-Methyl-1-propionyl-1,2,3,4-tetrahydroquinolin-4-yl]amino}-N-{(R)-1-[(4-{[(2S*,4R*)-2-methyl-1-propionyl-1,2,3,4-tetrahydroquinolin-4-yl]amino}phenyl)amino]-1-oxopropan-2-yl}benzamide], 29.1 nM. With `CCC(=O)N1c2ccccc2[C@H](Nc2ccc(NC(=O)[C@H](C)NC(=O)c3ccc(N[C@@H]4C[C@H](C)N(C(=O)CC)c5ccccc54)cc3)cc2)C[C@@H]1C` (relative stereo) [Compound 2d, 4-{[(2S,4R)-2-Methyl-1-propionyl-1,2,3,4-tetrahydroquinolin-4-yl]amino}-N-{(S)-1-[(4-{[(2S*,4R*)-2-methyl-1-propionyl-1,2,3,4-tetrahydroquinolin-4-yl]amino}phenyl)amino]-1-oxopropan-2-yl}benzamide] the figure was 26.6 nM; with `CCC(=O)N1c2ccccc2[C@H](Nc2ccc(NC(=O)[C@@H](NC(=O)c3ccc(N[C@@H]4C[C@H](C)N(C(=O)CC)c5ccccc54)cc3)C(C)C)cc2)C[C@@H]1C` (relative stereo) [Compound 2e, N-{(S)-3-Methyl-1-[(4-{[(2S*,4R*)-2-methyl-1-propionyl-1,2,3,4-tetrahydroquinolin-4-yl]amino}phenyl)amino]-1-oxobutan-2-yl}-4-{[(2S,4R)-2-methyl-1-propionyl-1,2,3,4-tetrahydroquinolin-4-yl]amino}benzamide], 16.3 nM; with `CCC(=O)N1c2ccccc2[C@H](Nc2ccc(NC(=O)CCNC(=O)c3ccc(N[C@@H]4C[C@H](C)N(C(=O)CC)c5ccccc54)cc3)cc2)C[C@@H]1C` (relative stereo) [Compound 2f, 4-{[(2S,4R)-2-Methyl-1-propionyl-1,2,3,4-tetrahydroquinolin-4-yl]amino}-N-{3-[(4-{[(2S*,4R*)-2-methyl-1-propionyl-1,2,3,4-tetra hydroquinolin-4-yl]amino}phenyl)amino]-3-oxopropyl}benzamide], 0.23 nM.
